Here are results for 6 compounds from patent US8367684B2, “Derivatives of 4-(N-azacycloalkyl) anilides as potassium channel modulators” (Valeant Pharmaceuticals International, priority 2007, dated 2013).

The subject of this test is potassium ion channels. Briefly: Rubidium (Rb+) efflux assay in NGF-differentiated PC-12 cells, potassium channel modulation. The class given is cell-based. To be noted: depolarization buffer with 15 mM KCl, 10 min at room temperature, read-out: ACTIVITY (EC50, compound's concentration for 50% of maximal Rb+ efflux). The method, then: Compounds of this invention formula were evaluated as potassium channel modulators by measuring rhubidium release in the following assay.
Methods: PC-12 cells were grown at 37° C. and 5% CO2 in DMEM/F12 Medium supplemented with 10% horse serum, 5% fetal bovine serum, 2 mM glutamine, 100 U/ml penicillin, 100 U/ml streptomycin. They were plated in poly-D-lysine-coated 96-well cell culture microplates at a density of 40,000 cells/well and differentiated with 100 ng/ml NGF-7s for 2-5 days. For the assay, the medium was aspirated and the cells were washed once with 0.2 ml in wash buffer (25 mM Hepes, pH 7.4, 150 mM NaCl, 1 mM MgCl2, 0.8 mM NaH2PO4, 2 mM CaCl2). The cells were then loaded with 0.2 ml Rb^+ loading buffer (wash buffer plus 5.4 mM […], 5 mM glucose) and incubated at 37° C. for 2 h. Attached cells were quickly washed three times with buffer (same as Rb^+ loading buffer, but containing 5.4 mM KCl instead of RbCl) to remove extracellular Rb^+. Immediately following the wash, 0.2 ml of depolarization buffer (wash buffer plus 15 mM KCl) with or without compounds was added to the cells to activate efflux of potassium ion channels. After incubation for 10 min at room temperature, the supernatant was carefully removed and collected. Cells were lysed by the addition of 0.2 ml of lysis buffer (depolarization buffer plus 0.1% Triton X-100) and the cell lysates were also collected. If collected samples were not immediately analyzed for Rb^+ contents by atomic absorption spectroscopy (see below), they were stored at 4° C. without any negative effects on subsequent Rb^+ analysis.
The concentration of Rb^+ in the supernatants (Rb^+Sup) and cell lysates (Rb^+Lys) was quantified using an ICR8000 flame atomic absorption spectrometer (Aurora Biomed Inc., Vancouver, B.C.) under conditions defined by the manufacturer. One 0.05 ml samples were processed automatically from microtiter plates by dilution with an equal volume of Rb^+ sample analysis buffer and injection into an air-acetylene flame. The amount of Rb^+ in the sample was measured by absorption at 780 nm using a hollow cathode lamp as light source and a PMT detector. A calibration curve covering the range 0-5 mg/L Rb^+ in sample analysis buffer was generated with each set of plates. The percent Rb^+ efflux (F) was defined by F=[Rb^+sup/(Rb^+sup+Rb^+Lys)]×100%.
The effect (E) of a compound was defined by: E=[(Fc−Fb)/(Fs−Fb)]×100% where the Fc is the efflux in the presence of compound in depolarization buffer, Fb is the efflux in basal buffer, and Fs is the efflux in depolarization buffer, and Fc is the efflux in the presence of compound in depolarization buffer. The effect (E) and compound concentration relationship was plotted to calculate an EC50 value, a compound's concentration for 50% of maximal Rb^+ efflux. Legend: A: EC50=1 nM-50 nM; B: EC50=50 nM-100 nM; C: EC50=100-200 nM.
For the compound `COc1nc(N2CCc3cc(F)ccc3C2)nc(OC)c1NC(=O)CC(C)(C)C`, the EC50 is 1 to 50 nM.
For `Cc1cc(N2CCc3cc(F)ccc3C2)nc(C)c1NC(=O)CC(C)(C)C`, the EC50 is 1 to 50 nM.
Regarding `Cc1nc(N2CCc3ccccc3C2)nc(C)c1NC(=O)CC(C)(C)C`, the EC50 lay in the range of 50 to 100 nM.
Turning to `Cc1cc(N2CCc3cc(C(F)(F)F)ccc3C2)nc(C)c1NC(=O)CC(C)(C)C`, the EC50 was 1 to 50 nM.
With `COc1nc(N2CCc3ccccc3C2)nc(OC)c1NC(=O)CC(C)(C)C`, the EC50 lay in the range of 1 to 50 nM.
Regarding `Cc1cc(N2CCc3ccccc3C2)nc(C)c1NC(=O)CC(C)(C)C`, the EC50 lay within 1 to 50 nM.
